Results on 46 compounds are retold here after patent US9102670B2, “Pyrido-, pyrazo- and pyrimido-pyrimidine derivatives as mTOR inhibitors” (KuDOS Pharmaceuticals Limited, priority 2006, dated 2015).

A word on the IC50: it is the concentration needed to halve the response being measured.

For the first assay, the system named is phosphorylation of Serine 473 in Akt. The experiment in a line: In Vitro Phospho-Ser473 Akt Assay in MDA-MB-468 cells. It counts as cell-based. The settings on record: Homo sapiens, MDA-MB-468, read-out: IC50 values against mTOR, phospho-Ser473 Akt assay, MDA-MB-468 cells.
As to `COc1ccc(-c2ccc3c(N4CCOC[C@@H]4C)nc(N4CCCCCC4)nc3n2)cc1CO` [Example 18d], the IC50 is below 100 nM. The same measure, in the same setting: in the case of `CNCCOc1nc(N2CCOC[C@@H]2C)c2ccc(-c3ccc(OC)c(CO)c3)nc2n1` [Example 18db] it was below 100 nM. The same measure, in the same setting: in the case of `COc1ccc(-c2ccc3c(N4CCOC[C@@H]4C)nc(N4CCCCO4)nc3n2)cc1CO` [Example 18dd] it was below 300 nM; in that of `C[C@@H]1CN(c2nc(N3CCOC[C@@H]3C)c3ccc(-c4ccc(Cl)cc4)nc3n2)C[C@H](C)O1` [Example 18dh], below 300 nM; in that of `C[C@H]1COCCN1c1nc(N2CCOCC2)nc2nc(-c3ccc(Cl)cc3)ccc12` [Example 18di], below 300 nM. Turning to `COc1ccc(-c2ccc3c(N4CCOC[C@@H]4C)nc(N4CCCCC(N)C4)nc3n2)cc1CO` (stereo partly shown) [Example 18e], the IC50 is below 300 nM. Consider `COc1ccc(-c2ccc3c(N4CCOC[C@@H]4C)nc(N4CCC(c5cccc(O)c5)CC4)nc3n2)cc1CO` [Example 18f], for which the IC50 is below 100 nM. Consider `COc1ccc(-c2ccc3c(N4CCOC[C@@H]4C)nc(N4CCC(CCO)CC4)nc3n2)cc1CO` [Example 18g], for which the IC50 was below 100 nM. Still for that read-out and setting: in the case of `COc1ccc(-c2ccc3c(N4CCOC[C@@H]4C)nc(N4CCCC(C(F)(F)F)C4)nc3n2)cc1CO` (stereo partly shown) [Example 18h] it was below 300 nM; in that of `COc1ccc(-c2ccc3c(N4CCOC[C@@H]4C)nc(N4CCCC(C)C4)nc3n2)cc1CO` (stereo partly shown) [Example 18i], below 100 nM. On the same count and under the same terms, the result for `COc1ccc(-c2ccc3c(N4CCOC[C@@H]4C)nc(N4CCCC(O)C4)nc3n2)cc1CO` (stereo partly shown) [Example 18k] reads below 100 nM; that for `COc1ccc(-c2ccc3c(N4CCOC[C@@H]4C)nc(Nc4ccccc4)nc3n2)cc1CO` [Example 18m], below 100 nM. Still for that read-out and setting: the result for `COc1ccc(-c2ccc3c(N4CCOC[C@@H]4C)nc(Nc4ccccn4)nc3n2)cc1CO` [Example 18p] reads below 300 nM.

As to `COc1ccc(-c2ccc3c(N4CCOC[C@@H]4C)nc(N4CCCC4)nc3n2)cc1CO` [Example 18q], the IC50 was below 100 nM. Still for that read-out and setting: the result for `CCOC(=O)C1CCCN(c2nc(N3CCOC[C@@H]3C)c3ccc(-c4ccc(OC)c(CO)c4)nc3n2)C1` (stereo partly shown) [Example 18r] reads below 100 nM; that for `COc1ccc(-c2ccc3c(N4CCOC[C@@H]4C)nc(N4CCC(CN)CC4)nc3n2)cc1CO` [Example 18s], below 100 nM; that for `COc1ccc(-c2ccc3c(N4CCOC[C@@H]4C)nc(N4CCC(C)CC4)nc3n2)cc1CO` [Example 18t], below 100 nM. As to `CCOC(=O)C1CCN(c2nc(N3CCOC[C@@H]3C)c3ccc(-c4ccc(OC)c(CO)c4)nc3n2)CC1` [Example 18u], the IC50 was below 100 nM. Same read-out and setting: in the case of `COc1ccc(-c2ccc3c(N4CCOC[C@@H]4C)nc(N4CCC(C(N)=O)CC4)nc3n2)cc1CO` [Example 18v] it was below 100 nM; in that of `COc1ccc(C(=O)C2CCN(c3nc(N4CCOC[C@@H]4C)c4ccc(-c5ccc(OC)c(CO)c5)nc4n3)CC2)cc1` [Example 18w], below 300 nM.

`COc1ccc(-c2ccc3c(N4CCOC[C@@H]4C)nc(N4CCC(CO)CC4)nc3n2)cc1CO` [Example 18x]: the IC50 was below 100 nM.

In the case of `COc1ccc(-c2ccc3c(N4CCOC[C@@H]4C)nc(N4CCCC(CO)C4)nc3n2)cc1CO` (stereo partly shown) [Example 18y], the half-maximal inhibitory concentration (IC50) was below 100 nM.

As for `COc1ccc(-c2ccc3c(N4CCOC[C@@H]4C)nc(-c4cccc(C=O)c4)nc3n2)cc1CO` [Example 19b], the IC50 is below 300 nM. Regarding `COc1ccc(-c2ccc3c(N4CCOC[C@@H]4C)nc(-c4cccc(CO)c4)nc3n2)cc1CO` [Example 19c], the IC50 is below 300 nM.

`COc1ccc(-c2ccc3c(N4CCOC[C@@H]4C)nc(-c4cccnc4)nc3n2)cc1CO` [Example 19j]: the IC50 was below 100 nM. On to `COc1ccc(-c2ccc3c(N4CCOC[C@@H]4C)nc(-c4cccc(C(N)=O)c4)nc3n2)cc1CO` [Example 19k], for which the IC50 was below 300 nM. Consider `COc1ccc(-c2nc(N3CCOC[C@@H]3C)c3ccc(-c4cccc(CO)c4)nc3n2)cn1` [Example 19p], for which the IC50 was below 100 nM.

Still in this assay, the particulars now being: Homo sapiens, MDA-MB-468, read-out: IC50 values against mTOR, phospho-Ser473 Akt assay, MDA-MB-468 cells, upper bound.
Turning to `C[C@H]1CCCCN1c1nc(N2CCOC[C@@H]2C)c2ccc(-c3ccc(Cl)cc3)nc2n1` [Example 18de], the concentration for half-maximal inhibition (IC50) is below 1000 nM. Same read-out and setting: in the case of `C[C@@H]1CCCCN1c1nc(N2CCOC[C@@H]2C)c2ccc(-c3ccc(Cl)cc3)nc2n1` [Example 18dg] it was below 1000 nM; in that of `C[C@H]1COCCN1c1nc(N2CCC(C(N)=O)CC2)nc2nc(-c3ccc(Cl)cc3)ccc12` [Example 18dj], below 1000 nM. For the compound `COc1ccc(-c2ccc3c(N4CCOC[C@@H]4C)nc(N4CCCC(c5ccccc5)C4)nc3n2)cc1CO` (stereo partly shown) [Example 18j], the IC50 was below 1000 nM. For `COc1ccc(-c2ccc3c(N4CCOC[C@@H]4C)nc(Nc4ccncn4)nc3n2)cc1CO` [Example 18n], the IC50 was below 1000 nM. As to `COc1ccc(-c2ccc3c(N4CCOC[C@@H]4C)nc(Nc4cccnc4)nc3n2)cc1CO` [Example 18o], the IC50 is below 1000 nM. Still for that read-out and setting: in the case of `COc1ccc(-c2ccc3c(N4CCOC[C@@H]4C)nc(N4CCC(N5CCCCC5)CC4)nc3n2)cc1CO` [Example 18z] it was below 1000 nM; in that of `COc1ccc(-c2ccc3c(N4CCOC[C@@H]4C)nc(-c4cccc(CN)c4)nc3n2)cc1CO` [Example 19e], below 1000 nM. Regarding `COC(=O)c1cccc(-c2nc(N3CCOC[C@@H]3C)c3ccc(-c4ccc(OC)c(CO)c4)nc3n2)c1` [Example 19h], the IC50 is below 1000 nM.

For the compound `COc1ccc(-c2ccc3c(N4CCOC[C@@H]4C)nc(-c4cccc([N+](=O)[O-])c4)nc3n2)cc1CO` [Example 19i], the IC50 is below 1000 nM.

With `COCc1cccc(-c2nc(N3CCOC[C@@H]3C)c3ccc(-c4ccc(OC)c(CO)c4)nc3n2)c1` [Example 19l], the IC50 was below 1000 nM. `COc1ccc(-c2ccc3c(N4CCOC[C@@H]4C)nc(-c4cccc(C(F)(F)F)c4)nc3n2)cc1CO` [Example 19m]: the IC50 was below 1000 nM.

As to `COc1ccc(-c2ccc3c(N4CCOC[C@@H]4C)nc(-c4cccc(C)c4)nc3n2)cc1CO` [Example 19n], the IC50 is below 1000 nM. On the same count and under the same terms, in the case of `COc1cccc(-c2nc(N3CCOC[C@@H]3C)c3ccc(-c4ccc(OC)c(CO)c4)nc3n2)c1` [Example 19o] it was below 1000 nM; in that of `C[C@H]1COCCN1c1nc(-c2ccncc2)nc2nc(-c3cccc(CO)c3)ccc12` [Example 19q], below 1000 nM. For the compound `COc1cncc(-c2nc(N3CCOC[C@@H]3C)c3ccc(-c4cccc(CO)c4)nc3n2)c1` [Example 19s], the IC50 was below 1000 nM. With `C[C@H]1COCCN1c1nc(-c2cccnc2F)nc2nc(-c3cccc(CO)c3)ccc12` [Example 19u], the IC50 is below 1000 nM. As to `C[C@H]1COCCN1c1nc(-c2cnn(C)c2)nc2nc(-c3cccc(CO)c3)ccc12` [Example 19v], the IC50 is below 1000 nM. The same measure, in the same setting: the result for `Cc1nn(C)c(C)c1-c1nc(N2CCOC[C@@H]2C)c2ccc(-c3cccc(CO)c3)nc2n1` [Example 19w] reads below 1000 nM.
